Data on 1 molecule can be found in patent US12097210B2, “Concomitant administration of glucocorticoid receptor modulators and CYP3A inhibitors” (Corcept Therapeutics, Inc., priority 2017, dated 2024).

Common to all, as to assay type: in vivo, human
Series [1] is described as follows: Example 2: safety (adverse events, physical examinations, laboratory tests). As for the experimental part:
Safety was assessed by spontaneously reported adverse events, physical examinations, and routine clinical laboratory tests. Adverse event data were tabulated. Physical findings and laboratory test results were listed by subject.

Series [2] is described as follows: Example 3: cross-study comparison of exposure with historic study of 1200 mg mifepristone OD.
Series [3] in a line: Example 1: safety (adverse events, physical examinations, clinical laboratory tests, ECG). As to conditions: mifepristone 300 mg single dose with ketoconazole for 14 days. As for the experimental part: Subjects in both cohorts returned to the study center on Day 15 for safety monitoring, and completion of the Termination Visit procedures, followed by discharge from the study. Safety was assessed by spontaneously reported adverse events, physical examinations, and routine clinical laboratory tests. To the extent possible, any adverse events deemed study drug-related and that were ongoing at the time of discharge from the study were followed-up to resolution or until a determination is made that the unresolved event was stable.

Series [4] in a line: Examples 5-8: liver function of patient with excess cortisol on ketoconazole and reduced mifepristone dose.
Series [5] is described as follows: Example 3: effect of ketoconazole 200 mg twice daily on PK of mifepristone 600 mg once daily and metabolites, with food. On the procedure:
A single dose of ketoconazole was administered on Day −1.
The study was a two period study design.
Concentrations of RU 42633 and RU 42848 were similar on Day 17 and Day 12.

Where [6] appears, read: Test: Day 17, 600 mg mifepristone OD + 200 mg Ketoconazole BID, Reference: historic study Day 7, 1200 mg mifepristone OD alone, after 34% fat meal.
The mark [7] stands for this setting: Test: Day 17, 600 mg mifepristone OD + 200 mg Ketoconazole BID, Reference: Day 12, 600 mg mifepristone OD, geometric mean ratio.

For `CC#C[C@]1(O)CC[C@H]2[C@@H]3CCC4=CC(=O)CCC4=C3[C@@H](c3ccc(N(C)C)cc3)C[C@@]21C` [Mifepristone, 11β-(4-dimethylaminophenyl)-17β-hydroxy-17α-(1-propynyl)-estra-4,9-dien-3-one], in series [1] (four subjects in Cohort 2 (600 mg OD)), the “TEAEs considered possibly or probably related to mifepristone administration” value is “dizziness, nausea, vomiting, dry mouth, and rash”. For the same molecule, the “subjects experiencing at least 1 TEAE” value in series [1] (twelve subjects, mifepristone 300 or 600 mg OD 8 days, ketoconazole 400 mg Day 8) amounted to 50%. Besides, the “exposures as percent of those observed following the highest labeled dose of mifepristone (1200 mg daily)” value in series [2] (600 mg mifepristone OD + 200 mg ketoconazole BID) is given as “approximately 85%”. Moreover, in series [2] (setting [6]), the “Ratio % Test/Ref, AUC0-24” value was 87.27% and the “Ratio % Test/Ref, Cmax” value is listed as 84.64%. The “subjects experiencing at least one treatment emergent adverse event (TEAE)” value in series [3] (12 subjects) worked out at 25%. In series [3], the “SAE or AE resulting in discontinuation” value is given as “No subject experienced an SAE or an AE that resulted in discontinuation from the study”, the “TEAEs considered by the investigator to be related to the drug” value is on record as “No TEAE was considered by the investigator to be related to Mifepristone”, the “changes in ECG parameters” value is given as “No clinically significant changes in any ECG parameter” and the “changes in laboratory test results” value is “Minimal changes in laboratory test results”. In series [4] (Example 5: mifepristone reduced from 1200 mg to 900 mg daily with ketoconazole), the “liver function of the patient” value is “not significantly compromised”. Moreover, the “liver function of the patient” value in series [4] (Example 6: mifepristone reduced from 900 mg to 600 mg daily with ketoconazole) was “not significantly compromised”. The “liver function of the patient” value in series [4] (Example 7: mifepristone reduced from 600 mg to 300 mg daily with ketoconazole) was “not significantly compromised”. In addition, the “liver function of the patient” value in series [4] (Example 8: mifepristone reduced from 1500 mg to 1200 mg daily with ketoconazole) is “not significantly compromised”. Also, in series [5] (600 mg mifepristone daily with 200 mg ketoconazole twice daily vs mifepristone alone), the “concentrations on Day 17 compared with Day 12” value is listed as “higher”. The “trough concentrations through the start of ketoconazole administration (Day 13)” value in series [5] (FIG. 1, 600 mg mifepristone OD) is reported as “increasing day-by-day”. Moreover, the “difference of time 0 (pre-dose) plasma concentration, Day 17 vs Day 12” value in series [5] (FIG. 2, before and after inhibition of CYP3A by ketoconazole) is roughly 500 ng/mL. Besides, in series [5] (setting [7]), the “Ratio % Test/Reference, AUC0-24” value stood at 138.01% and the “Ratio % Test/Reference, Cmax” value is 127.59%.
